Results reported in article PMC8165160, “Substrate Specificities and Inhibition Pattern of the Solute Carrier Family 10 Members NTCP, ASBT and SOAT” (Frontiers in Molecular Biosciences, 2021).
Where a name gives a salt, the structure may show the parent alone.

Legend:
Assay type in all cases: cell-based
SOAT = biological target: T1, SOAT (Homo sapiens, UniProt Q3KNW5); assay: Substrate screening: sodium-dependent uptake of radiolabeled compounds in SOAT-HEK293 cells; conditions: SOAT-HEK293, vs sodium-free control
T1 construct: The full-length open reading frames of NTCP, ASBT, and SOAT were cloned; expressed in transfected cells; host or cells: Flp-In T-REX HEK293 (SOAT-HEK293), tetracycline-induced
T1 sequence (Q3KNW5 1-377): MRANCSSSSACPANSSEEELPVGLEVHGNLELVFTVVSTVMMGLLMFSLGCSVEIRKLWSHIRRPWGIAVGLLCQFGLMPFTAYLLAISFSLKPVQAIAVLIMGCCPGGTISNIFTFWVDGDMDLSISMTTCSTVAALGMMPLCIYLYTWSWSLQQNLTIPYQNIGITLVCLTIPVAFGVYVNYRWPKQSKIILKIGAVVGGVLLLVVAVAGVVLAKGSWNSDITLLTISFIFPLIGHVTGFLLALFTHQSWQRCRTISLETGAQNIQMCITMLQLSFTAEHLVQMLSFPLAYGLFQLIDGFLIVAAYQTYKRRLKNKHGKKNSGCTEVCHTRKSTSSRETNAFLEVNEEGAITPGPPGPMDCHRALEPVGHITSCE
Experimental: (§1) Stably SLC10 transporter transfected NTCP-HEK293, ASBT-HEK293, SOAT-HEK293 cells and the HEK293-FlpIn maternal cell line were seeded on 24-well plates (if not stated otherwise for individual assays). Well plates were coated with poly-D-lysine prior to seeding of 125,000 cells per well. Cells were grown with 1 ml of standard medium per well with or without tetracycline ([…]) for 72 h to induce carrier expression before respective assays were started. HEK293-FlpIn cells were cultivated with standard medium and served as control.
(§2) Uptake experiments were initiated by replacing the preincubation buffer by 500 μL transport buffer containing the radiolabeled test compound and were performed at 37°C. Transport was terminated by removing the transport buffer and washing five-times with ice-cold PBS. Cell monolayers were lysed in 1 N NaOH with 0.1% SDS and the cell-associated radioactivity was determined by liquid scintillation counting.
(§3) FIGURE 1 Comparative substrate screening for bile acids and sulfated steroids in NTCP-, ASBT-, and SOAT-HEK293 cells. Transport assays were performed with the indicated substrates in NTCP-HEK293, ABST-HEK293, SOAT-HEK293, and HEK293-FlpIn cells. Cells were washed and equilibrated with Na^+-containing transport buffer (filled bars) or with Na^+-free transport buffer (open bars) at 37°C. For uptake, cells were incubated with radiolabeled steroid compounds at a final concentration of 200 nM in Na^+-containing or Na^+-free transport buffer for 10 min. Radiolabeled bile acids were used at 1 µM concentrations and transport was analyzed over 30 min. HEK293-FlpIn cells served as additional controls. After the indicated time intervals, cells were washed with ice-cold PBS, lysed and subjected to liquid scintillation counting. […] 3-OH, trihydroxylated BAs; 2-OH, dihydroxylated BAs; 1-OH, monohydroxylated BAs.

NTCP = biological target: T2, NTCP (Homo sapiens, UniProt Q14973); assay: Substrate screening: sodium-dependent uptake of radiolabeled compounds in NTCP-HEK293 cells; parameters: The full-length open reading frames of NTCP, ASBT, and SOAT were cloned; expressed in transfected cells; host or cells: Flp-In T-REX HEK293 (NTCP-HEK293), tetracycline-induced; conditions: NTCP-HEK293, vs sodium-free control
T2 sequence (Q14973 1-349): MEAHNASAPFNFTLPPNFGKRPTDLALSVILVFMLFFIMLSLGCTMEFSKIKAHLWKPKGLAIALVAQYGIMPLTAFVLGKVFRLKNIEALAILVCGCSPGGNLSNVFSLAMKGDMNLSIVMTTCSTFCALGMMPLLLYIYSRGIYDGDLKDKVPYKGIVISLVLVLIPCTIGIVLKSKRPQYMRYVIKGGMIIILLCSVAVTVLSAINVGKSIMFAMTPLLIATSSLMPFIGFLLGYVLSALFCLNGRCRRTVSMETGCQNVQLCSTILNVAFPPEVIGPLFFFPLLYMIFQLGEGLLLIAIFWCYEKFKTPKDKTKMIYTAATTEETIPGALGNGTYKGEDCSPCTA
Experimental: as §1, §2, §3

ASBT = biological target: T3, ASBT (Homo sapiens, UniProt Q12908); assay: Substrate screening: sodium-dependent uptake of radiolabeled compounds in ASBT-HEK293 cells; conditions: radiolabeled bile acids 1 µM, 30 min, ASBT-HEK293, vs sodium-free control
T3 construct: The full-length open reading frames of NTCP, ASBT, and SOAT were cloned; expressed in transfected cells; host or cells: Flp-In T-REX HEK293 (ASBT-HEK293), tetracycline-induced
T3 sequence (Q12908 1-348): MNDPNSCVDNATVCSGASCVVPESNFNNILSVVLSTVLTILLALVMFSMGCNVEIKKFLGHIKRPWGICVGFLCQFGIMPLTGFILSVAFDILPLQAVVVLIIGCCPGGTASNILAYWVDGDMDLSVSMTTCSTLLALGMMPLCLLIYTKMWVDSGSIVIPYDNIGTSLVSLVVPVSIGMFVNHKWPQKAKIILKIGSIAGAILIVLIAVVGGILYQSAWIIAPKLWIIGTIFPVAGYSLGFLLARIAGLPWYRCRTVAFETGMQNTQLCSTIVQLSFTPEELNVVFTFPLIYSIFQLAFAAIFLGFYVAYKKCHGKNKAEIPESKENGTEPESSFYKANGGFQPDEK
Experimental: as §1, §2, §3

[1] = radiolabeled steroid compounds 200 nM, 10 min
[2] = radiolabeled bile acids 1 µM, 30 min

SMILES	Transport activity grading SOAT (mean uptake) (SOAT; [1])	Transport activity grading NTCP (mean uptake) (NTCP; [1])	Transport activity grading ASBT (mean uptake) (ASBT)	Transport activity grading NTCP (mean uptake) (NTCP; [2])	Transport activity grading SOAT (mean uptake) (SOAT; [2])
C[C@]12CC[C@H](OS(=O)(=O)O)CC1=CC[C@@H]1[C@@H]2CC[C@]2(C)C(=O)CC[C@@H]12 [DHEAS, Dehydroepiandrosterone sulfate]	++ (“++” for values between 10 and 100)	+ (Mean uptake “+” for values below 10)	–	–	–
C[C@H](CCC(=O)NCCS(=O)(=O)O)[C@H]1CC[C@H]2[C@@H]3[C@H](O)C[C@@H]4C[C@H](O)CC[C@]4(C)[C@H]3C[C@H](O)[C@]12C [Taurocholic acid]	–	–	++ (“++” for values between 500 and 1000)	+++ (“+++” for values above 1000 pmol/mg protein/30 min)	–
C[C@H](CCC(=O)NCCS(=O)(=O)O)[C@H]1CC[C@H]2[C@@H]3CC[C@@H]4C[C@H](O)CC[C@]4(C)[C@H]3CC[C@]12C [Taurolithocholic acid]	–	–	+++ (“+++” for values above 1000 pmol/mg protein/30 min)	+++ (“+++” for values above 1000 pmol/mg protein/30 min)	++ (“++” for values between 500 and 1000)
